Data as given in US6762189B1, “5-pyrimidinecarboxamide derivatives and the pharmaceutical compositions containing said derivatives” (Dong Wha Pharm. Ind. Co., Ltd., priority 1999, dated 2004).

What was measured:
[1] = tested on: HBV; assay: Inhibition of HBV proliferation in HBV producing cell line HepG 2.2.15 (competitive PCR of culture supernatant); type: cell-based, Hepatitis B virus; settings: Hepatitis B virus, HepG2.2.15, 168 h, HepG 2.2.15, one week, read-out: Inhibitory effect on the HBV proliferation, Inhibition activity on HBV-RT (%); for inhibition at 0.01 µg/mL: 0.01 μg/ml; for inhibition at 0.1 µg/mL: 0.1 μg/ml; for inhibition at 1 µg/mL: 1 μg/ml
Method: The following experiment was performed to determine inhibitory effects of compounds of formula on the proliferation of HBV producing cell line.
To test for antiviral effect, replication and proliferation of HBV were measured in HepG 2.2.15, a human liver cancer cell line.
The cell concentration was adjusted to 1×10^5 cells/ml and 1 ml was added to each well of a 24-well cell culture plate, which was then kept in a culture box for 3-4 days at 37° C. under 5% CO2 until cells grew sufficiently, changing culture medium everyday. When the cells matured sufficiently, the test compounds were added to the final concentrations of 0.01, 0.1, and 1 μg/ml. One week after the addition of test compounds, he culture solution was centrifuged at 5,000 rpm for 10 min. 25 μl of supernatant was transferred to a new tube and 5 μl of lysis solution [0.54N NaOH, 0.06% NP40] was added to each tube. After keeping the tube at 37° C. for 1 hr, 30 μl . of neutralizing solution [0.09NHCl, 0.1MTris-HCl, pH7.4] was added as a reaction solution for competitive polymerase chain reaction (PCR).
PCR was performed using genetic sequence of HBV core protein as a matrix. PCR reaction was carried out by adding 1 unit of Taq polymerase enzyme to 25 pmol of each primer, 250 μM dNTP, 5 μl of PCR reaction solution [0.54N NaOH, 0.06% NP40, 0.09N HCl, 0.1M Tris-HCl, pH 7.4].
DNA polymerized by PCR was electrophoresed on Agarose gel and quantitatively analyzed using an image analyzer (Gel Dcc 1000, Bio-Rad) in order to evaluate the effect of compounds of the present invention on the reduction of HBV proliferation.
3TC (lamivudine) was used as a positive control at the same concentrations as those of the test compounds. The percentage of reduction in HBV proliferation was calculated using the group without test compound as a control and the results are represented in Table 4.

[2] = biological target: T1, HIV reverse transcriptase (Human immunodeficiency virus type 1 group M subtype B, UniProt P04585); assay: In vitro HIV reverse transcriptase activity (non-radioactive reverse transcriptase assay kit); type: biochemical; settings: for Inhibitory effect on the activities of HIV reverse transcriptase, Inhibition activity on HBV-RT (%): 0.1 μg/ml test compound; for Inhibition of HIV reverse transcriptase activity: 1 μg/ml test compound
T1 construct: activities of HIV reverse transcriptase; purchased Boehringer Mannheim
Method: The following in vitro experiments were done to determine the effect of compounds of formula 1 on the reduction of HIV enzyme activities in reverse transcription.
Non-radioactive reverse transcriptase assay kit (Boehringer Mannheim) was used in the measurement of in vitro transcriptase activities. 20 μl (40 ng) of HIV transcriptase and 20 μl of reaction mixture containing matrix-primer hybrid poly (A) oligo (dT) 15, DIG(digoxigenin)-dUTP, biotin-dUTP, and TTP were added to wells coated with streptavidin. Test compounds were also added at the final concentrations of 0.1 and 1 μg/ml and allowed to react at 37° C. for 1 hr. At this time, DNA is formed from RNA by the action of HIV transcriptase, forming bonds with streptavidin coated on the bottom of wells because of digoxigenin and biotin moieties attached to nucleotides.
When the reaction was completed, each well was washed with 250 μl. of cleaning buffer (pH 7.0) for 30 sec. five times to remove remaining impurities. 200 μl of anti-DIG-POD […] was added to each well, allowed to react at 37° C. for 1 hr and washed as above to remove impurities. 200 μl of ABTS™, a substrate for peroxidase, was added to each well and allowed to react at room temperature for 30min. Absorbance at 405 nm was then read for each solution using ELISA reader and used for quantitative determination of inhibitory effect on the HIV transcriptase activities. The percentage of reduction in the activities of HIV reverse transcriptase was calculated using the group without test compound as control and the results are represented in Table 5.

[3] = tested on: HepG2 cells; assay: Cytotoxicity test on HepG2 cells (MTT); type: cell-based
[4] = Cytotoxicity test on HepG2 cells (MTT); type: cell-based; settings: human, read-out: Cytotoxity on HepG2, IC50 (50% Inhibitory Concentration)
[5] = biological target: T2, HBV polymerase (Hepatitis B virus genotype A2 subtype adw2, UniProt P03159); assay: In vitro reverse transcription activity of HBV polymerase (ELISA-type, DIG/biotin nucleotides); type: biochemical; settings: read-out: Inhibition activity on HBV-RT (%); for inhibition at 0.01 µg/mL: 0.01 μg/ml test compound; for inhibition at 0.1 µg/mL: 0.1 μg/ml test compound; for inhibition at 1 µg/mL: 1 μg/ml test compound
T2 construct: made in house; host or cells: E. coli
T2 sequence (P03159 whole entry): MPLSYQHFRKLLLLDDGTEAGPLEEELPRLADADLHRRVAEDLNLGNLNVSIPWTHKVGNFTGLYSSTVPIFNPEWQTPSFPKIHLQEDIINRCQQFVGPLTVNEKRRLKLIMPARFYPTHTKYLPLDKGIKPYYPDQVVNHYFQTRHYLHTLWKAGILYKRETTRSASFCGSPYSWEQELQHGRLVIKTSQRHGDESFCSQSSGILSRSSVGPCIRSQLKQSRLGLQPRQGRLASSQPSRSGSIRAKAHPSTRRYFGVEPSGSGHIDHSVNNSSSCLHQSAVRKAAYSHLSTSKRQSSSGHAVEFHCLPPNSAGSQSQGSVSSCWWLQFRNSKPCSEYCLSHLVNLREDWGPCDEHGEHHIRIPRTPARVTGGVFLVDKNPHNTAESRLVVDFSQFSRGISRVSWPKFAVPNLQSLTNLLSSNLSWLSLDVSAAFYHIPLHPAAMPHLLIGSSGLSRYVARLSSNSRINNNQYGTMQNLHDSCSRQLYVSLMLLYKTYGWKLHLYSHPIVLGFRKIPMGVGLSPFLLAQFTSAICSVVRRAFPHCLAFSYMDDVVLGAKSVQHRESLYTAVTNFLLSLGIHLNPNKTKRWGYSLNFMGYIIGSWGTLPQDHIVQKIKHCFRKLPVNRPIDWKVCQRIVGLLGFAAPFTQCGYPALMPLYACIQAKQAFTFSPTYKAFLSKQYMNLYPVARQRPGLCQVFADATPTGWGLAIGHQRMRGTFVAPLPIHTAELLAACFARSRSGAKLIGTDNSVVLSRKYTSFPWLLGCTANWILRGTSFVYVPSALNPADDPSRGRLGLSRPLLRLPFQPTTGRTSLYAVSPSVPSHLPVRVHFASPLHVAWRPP
Method: The following in vitro experiment was performed to determine the effect of the compounds of formula 1 on the activity of HBV polymerase during reverse transcription.
The present inventors submitted application for a patent concerning HBV polymerase genetically expressed in and separated from E. coli, the process of its preparation, and the method to measure the enzyme activities (KR 94-3918, KR 96-33998). In the present experiments HBV polymerase was used which had been expressed in E. coli as stated above.
The method used in the present invention to measure in vitro reverse transcribing activities of HBV polymerase is as follows. Basic principles are the same as for ELISA. Nucleotides with biotin or digoxigenin group attached are included as substrates and anti-DIG antibodies attached to peroxidase enzyme recognize the polymerized substrates.
To the wells coated with streptavidin, 20 μl of HBV polymerase, 20 μl of reaction mixture (10 μM each of DIG-UTP and Biotin-UTP, 46 mM Tris-HCl, 266 mM KCl, 27.5 mM MgCl2, 9.2 mM DTT substrate/primer hybrid), and 20 μl of test compound (added to 1, 0.1, and 0.01 μg/ml) were added and allowed to react a 22° C. for 15 hrs. During this reaction, HBV polymerase catalyzes DNA synthesis and digoxigenin and biotin attached to nucleotides form bonds with streptavidin coated on the bottom of wells. When the reaction was done, each well was washed with 250μl of cleaning buffer (pH 7.0) for 30 seconds, which was repeated five times to remove remaining impurities. 200 μl of anti-DIG-POD antibody was added to each well and allowed to react for 1 hr at 37° C., and the wells were washed with cleaning buffer to remove impurities. 200μl each of ABTS™, a substrate of peroxidase, was then added and allowed to react at room temperature for 30 min. Absorbance was measured at 405 nm using ELISA reader.
The percentage of reduction in HBV polymerase activities for reverse transcription was calculated using the group without test compound as a control and the results are shown in Table 3.

Q: With `CNC(=O)c1cnc(SC)nc1Nc1ccc2[nH]ncc2c1` [Example 3, 4-(1H-5-Indazolylamino)-N-methyl-2-methylthio-5-pyrimidine carboxamide] as the compound, how does the inhibition at 0.01 µg/mL [1] read?
A: The inhibition at 0.01 µg/mL was 15%.

Q: What about the inhibition at 0.1 µg/mL [1] of the same compound?
A: Its inhibition at 0.1 µg/mL is 42%.

Q: What about the inhibition at 1 µg/mL [1] of the same compound?
A: Its inhibition at 1 µg/mL is 75%.

Q: And the “Inhibitory effect on the activities of HIV reverse transcriptase, Inhibition activity on HBV-RT (%)” value (“Inhibitory effect on the activities … (%)” for short) [2]?
A: The value was 48%.

Q: What about the “Inhibition of HIV reverse transcriptase activity” value [2] of the same compound?
A: The value was 62%.

Q: What about the “Cytotoxity on HepG2, MCD (Minimal Cytotoxic Concentration)” value (“Cytotoxity on HepG2, MCD” below) [3] of the same compound?
A: Its value is 100 µg/mL.

Q: What about the IC50 [4] of the same compound?
A: Its IC50 is greater than 100 mg/L.

Q: What about the inhibition at 0.01 µg/mL [5] of the same compound?
A: Its inhibition at 0.01 µg/mL is 34%.

Q: And the inhibition at 0.1 µg/mL [5]?
A: Its inhibition at 0.1 µg/mL is 59%.

Q: What about the inhibition at 1 µg/mL [5] of the same compound?
A: Its inhibition at 1 µg/mL is 88%.

Q: Which inhibition at 0.01 µg/mL [1] does the source give for `CNC(=O)c1cnc(SC)nc1Nc1ccc2cn[nH]c2c1` [Example 4, 4-(1H-6-Indazolylamino)-N-methyl-2-methylthio-5-pyrimidinecarboxamide] here?
A: Its inhibition at 0.01 µg/mL is 32%.

Q: What about the inhibition at 0.1 µg/mL [1] of the same compound?
A: The inhibition at 0.1 µg/mL was 70%.

Q: And the inhibition at 1 µg/mL [1]?
A: The inhibition at 1 µg/mL was 94%.

Q: And the “Inhibitory effect on the activities … (%)” value [2]?
A: Its value is 42%.

Q: And the “Inhibition of HIV reverse transcriptase activity” value [2]?
A: Its value is 70%.

Q: And the “Cytotoxity on HepG2, MCD” value [3]?
A: The value was 100 µg/mL.

Q: What about the IC50 [4] of the same compound?
A: Its IC50 is greater than 100 mg/L.

Q: And the inhibition at 0.01 µg/mL [5]?
A: The inhibition at 0.01 µg/mL was 52%.

Q: And the inhibition at 0.1 µg/mL [5]?
A: The inhibition at 0.1 µg/mL was 77%.

Q: And the inhibition at 1 µg/mL [5]?
A: Its inhibition at 1 µg/mL is 96%.

Q: With `CSc1ncc(C(=O)NCCO)c(Nc2ccc3cn[nH]c3c2)n1` [Example 8, N-(2-hydroxyethyl)-4-(1H-6-indazolylamino)-2-methylthio-5-pyrimidine Carboxamide] as the compound, how does the inhibition at 0.01 µg/mL [1] read?
A: The inhibition at 0.01 µg/mL was 40%.

Q: And the inhibition at 0.1 µg/mL [1]?
A: Its inhibition at 0.1 µg/mL is 72%.

Q: What about the inhibition at 1 µg/mL [1] of the same compound?
A: Its inhibition at 1 µg/mL is 88%.

Q: And the “Cytotoxity on HepG2, MCD” value [3]?
A: The value was 100 µg/mL.

Q: What about the IC50 [4] of the same compound?
A: Its IC50 is greater than 100 mg/L.

Q: And the inhibition at 0.01 µg/mL [5]?
A: The inhibition at 0.01 µg/mL was 50%.

Q: What about the inhibition at 0.1 µg/mL [5] of the same compound?
A: Its inhibition at 0.1 µg/mL is 68%.

Q: And the inhibition at 1 µg/mL [5]?
A: The inhibition at 1 µg/mL was 95%.

Q: For `CSc1ncc(C(=O)N(C)C)c(Nc2ccc3cn[nH]c3c2)n1` [Example 16, N,N-dimethyl-4-(1H-6-indazolylamino)-2-methylthio-5-pyrimidinecarboxamide], which “Inhibitory effect on the activities … (%)” value [2] is on record?
A: Its value is 53%.

Q: And the “Inhibition of HIV reverse transcriptase activity” value [2]?
A: The value was 81%.

Q: And the melting point?
A: The melting point was 164 to 166 °C.

Q: What about the inhibition at 0.01 µg/mL [5] of the same compound?
A: Its inhibition at 0.01 µg/mL is 10%.

Q: And the inhibition at 0.1 µg/mL [5]?
A: Its inhibition at 0.1 µg/mL is 30%.

Q: What about the inhibition at 1 µg/mL [5] of the same compound?
A: Its inhibition at 1 µg/mL is 54%.

Q: With `CSc1ncc(C(=O)NCCN(C)C)c(Nc2ccc3cn[nH]c3c2)n1` [Example 18, N-[2-(dimethylamino)ethyl]-4-(1H-6-indazolylamino)-2-methylthio-5-pyrimidinecarboxamide] as the compound, how does the inhibition at 0.01 µg/mL [1] read?
A: Its inhibition at 0.01 µg/mL is 43%.

Q: And the inhibition at 0.1 µg/mL [1]?
A: The inhibition at 0.1 µg/mL was 57%.

Q: What about the inhibition at 1 µg/mL [1] of the same compound?
A: Its inhibition at 1 µg/mL is 88%.

Q: What about the “Inhibitory effect on the activities … (%)” value [2] of the same compound?
A: Its value is 51%.

Q: What about the “Inhibition of HIV reverse transcriptase activity” value [2] of the same compound?
A: The value was 77%.

Q: What about the melting point of the same compound?
A: Its melting point is 162 to 167 °C.

Q: And the inhibition at 0.01 µg/mL [5]?
A: The inhibition at 0.01 µg/mL was 54%.

Q: What about the inhibition at 0.1 µg/mL [5] of the same compound?
A: Its inhibition at 0.1 µg/mL is 66%.

Q: What about the inhibition at 1 µg/mL [5] of the same compound?
A: The inhibition at 1 µg/mL was 92%.

Q: Which “Inhibitory effect on the activities … (%)” value [2] does the source give for `CSc1ncc(C(=O)NCCN2CCOCC2)c(Nc2ccc3[nH]ncc3c2)n1` [Example 19, 4-(1H-5-indazolylamino)-2-methylthio-N-[2-(4-morpholinyl)ethyl]-5-pyrimidinecarboxamide] here?
A: The value was 48%.

Q: What about the “Inhibition of HIV reverse transcriptase activity” value [2] of the same compound?
A: Its value is 75%.

Q: And the melting point?
A: Its melting point is 113 to 117 °C.

Q: What about the inhibition at 0.01 µg/mL [5] of the same compound?
A: Its inhibition at 0.01 µg/mL is 10%.

Q: What about the inhibition at 0.1 µg/mL [5] of the same compound?
A: The inhibition at 0.1 µg/mL was 39%.

Q: And the inhibition at 1 µg/mL [5]?
A: The inhibition at 1 µg/mL was 64%.

Q: Which results are given for `CSc1ncc(C(=O)NCCCn2ccnc2)c(Nc2ccc3[nH]ncc3c2)n1` [Example 29, N-[3-(1H-1-imidazolyl)propyl]-4-(1H-5-indazolylamino)-2-methylthio-5-pyrimidinecarboxamide]?
A: Inhibitory effect on the activities of HIV reverse transcriptase, Inhibition activity on HBV-RT (%) [2]: 44%; Inhibition of HIV reverse transcriptase activity [2]: 72%; melting point: 121 to 125 °C; inhibition at 0.01 µg/mL [5]: 41%; inhibition at 0.1 µg/mL [5]: 56%; inhibition at 1 µg/mL [5]: 80%
